Test results reported in patent US20260309717A1, “PROXIMITY INDUCING SYSTEM AND USES THEREOF” (SORBONNE UNIVERSITE, priority 2022, published 2026).

Key:
Assay type in all cases: cell-based
[1] = molecular target: T1, mCherry-^FIREtag / ^FIREmate-ECFP-Giantin (Halorhodospira halophila, UniProt P16113, A30V/C69G/D97P/F96I, form not given/G21E/G25R/K17N/M100R/M109L/Q41L/Q99S/S72T/T101G/V83A/Y94W/Y98T); assay: Induction of proximity with a non-fluorogenic chromophore, HeLa cells; settings: 10 μM
T1 construct: FIREmate-ECFP-Giantin(3131-3259) and mCherry-FIREtag in HeLa cells
T1 sequence (P16113 1-114 A30V/C69G/D97P/F96I/G21E/G25R/K17N/M100R/M109L/Q41L/Q99S/S72T/T101G/V83A/Y94W/Y98T): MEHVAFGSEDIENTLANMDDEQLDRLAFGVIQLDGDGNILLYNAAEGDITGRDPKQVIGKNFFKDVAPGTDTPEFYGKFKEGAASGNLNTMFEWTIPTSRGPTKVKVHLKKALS
Description: HeLa cells co-expressing mCherry-^FIREtag and ^FIREmate-ECFP-Giantin were treated with 10 μM HBR-2,5DM (match1), washed with HBR-2,5DM-free medium and then treated with 10 μM HBIR-3M. Cells were imaged by time-lapse spinning-disk confocal microscopy. FIGS. 9A-D are sets of representative confocal micrographs of untreated cells (9A), cells after addition of HBR-2,5DM (match1) (9B), cells after washout of HBR-2,5DM (match1) (9C), and cells after addition of HBIR-3M (9D). (mCherry: ex/em 561/606-675 nm; FIRE: ex/em 488/508-570 nm). Scale bars are 10 μm.
Next, experiments were carried out to investigate whether other chromophores could act as molecular inducer of proximity and provide new properties. In particular, non-fluorogenic chromophores, such as HBIR-3M, were investigated. […] The fusion proteins mCherry-^FIREtag (red fluorescence) and ^FIREmate-ECFP-Giantin (blue fluorescence) were co-expressed in HeLa cells as described above.

[2] = molecular target: T2, mCherry-^FIREtag / ^FIREmate-ECFP-Cb5 (Halorhodospira halophila, UniProt P16113, A30V/C69G/D97P/F96I, form not given/G21E/G25R/K17N/M100R/M109L/Q41L/Q99S/S72T/T101G/V83A/Y94W/Y98T); assay: Recruitment of cytoplasmic protein to the endoplasmic reticulum, HeLa cells; settings: 10 μM
T2 construct: FIREmate-ECFP-Cb5(100-134) and mCherry-FIREtag in HeLa cells
T2 sequence (P16113 1-114 A30V/C69G/D97P/F96I/G21E/G25R/K17N/M100R/M109L/Q41L/Q99S/S72T/T101G/V83A/Y94W/Y98T): T1 sequence (P16113 1-114 A30V/C69G/D97P/F96I/G21E/G25R/K17N/M100R/M109L/Q41L/Q99S/S72T/T101G/V83A/Y94W/Y98T)
Description: FIGS. 7A-E illustrate the recruitment of cytoplasmic proteins to the endoplasmic reticulum with the proximity inducing system described herein. FIG. 7A is a representation of the experimental design wherein HeLa cells co-expressing mCherry-^FIREtag and ^FIREmate-ECFP-Cb5 were treated with 10 μM of match (either HBR-2,5DM or HMBR), and imaged by time-lapse confocal microscopy. FIGS. 7B-C are graphs showing the temporal evolution of the FIRE signal detected upon addition at 0 min of HBR-2,5DM (match1-7C) or HMBR (match2-7D). Data represents the mean values±SD of 17 cells from n=3 independent experiments (7B, D), or of 18 cells from n=3 independent experiments (7C, E). FIGS. 7D-E are sets of representative confocal micrographs of cells before (0 min) and after (5 min) addition of HBR-2,5DM (match1-7D) or HMBR (match2-7E) (mCherry: ex/em 561/606-675 nm; FIRE: ex/em 488/508-570 nm; ECFP: ex/em 445/455-499 nm). […] Scale bars are 20 μm.
(§1) The confocal micrographs were acquired on a Zeiss LSM 980 Laser Scanning Microscope equipped with a plan apochromat 63x/1.4 NA oil immersion objective. ZEN software was used to collect the data. The images were analyzed using Icy (2.4.0.0) and Fiji (Image J). In short, to track fluorescence signal in a specific organelle, a ROI (region of interest) was determined by masking the signal in the ECFP (Enhanced Cyan Fluorescent Protein) channel with the plug-in HK-means with the following parameters: intensity class equals 100, minimum object size (pixels or px) equals 500, maximum object size (px) equals 1500-3000. The signal intensity of the ROI was tracked over time for each channel by using plug-in Active Contours. The background signal was subtracted. Data were processed using GraphPad Prism v9.3.0.
(§2) To further evaluate the scope of the proximity inducing system described herein and show its versatility, ^FIREmate was anchored at the membrane of various organelles or cellular structures so that ^FIREmate faced the cytosol. ^FIREmate was thus fused: • to the N-terminus of the transmembrane domain (amino acid residues at positions 3131-3259) of Giantin for location at the cis-medial rims of the Golgi apparatus (FIG. 6A), • to the N-terminus of the transmembrane domain (amino acid residues at positions 100-134) of the cytochrome b5 (Cb5) for location at the endoplasmic reticulum membrane (FIG. 7A), and • to the C-terminus of the Lyn11 inner membrane targeting sequence for location at the plasma membrane (FIG. 8A).
(§3) For each construct, an ECFP was inserted between ^FIREmate and the other protein domain/sequence to monitor the localization of the resulting fusion protein (blue fluorescence). Each fusion protein was co-expressed in mammalian cells (HeLa cells or HEK293 cells as indicated) together with mCherry-^FIREtag (red fluorescence). […]

[3] = molecular target: T3, mCherry-^FIREtag / Lyn11-ECFP-^FIREmate (Halorhodospira halophila, UniProt P16113, A30V/C69G/D97P/F96I, form not given/G21E/G25R/K17N/M100R/M109L/Q41L/Q99S/S72T/T101G/V83A/Y94W/Y98T); assay: Recruitment of cytoplasmic protein to the plasma membrane, HEK293 cells; settings: 10 μM
T3 construct: Lyn11-ECFP-FIREmate and mCherry-FIREtag in HEK293 cells
T3 sequence (P16113 1-114 A30V/C69G/D97P/F96I/G21E/G25R/K17N/M100R/M109L/Q41L/Q99S/S72T/T101G/V83A/Y94W/Y98T): T1 sequence (P16113 1-114 A30V/C69G/D97P/F96I/G21E/G25R/K17N/M100R/M109L/Q41L/Q99S/S72T/T101G/V83A/Y94W/Y98T)
Description: FIGS. 8A-E illustrate the recruitment of cytoplasmic proteins to the plasma membrane with the proximity inducing system described herein. FIG. 8A is a representation of the experimental design wherein HEK293 cells co-expressing mCherry-^FIREtag and Lyn11-ECFP-^FIREmate were treated with 10 μM of match (either HBR-2,5DM or HMBR), and imaged by time-lapse confocal microscopy. FIGS. 8B-C are graphs showing the temporal evolution of the FIRE signal detected upon addition at 0 min of HBR-2,5DM (match1-8B) or HMBR (match2-8C). Data represents the mean values±SD of 22 cells from n=3 independent experiments (8B, D), or of 30 cells from n=3 independent experiments (8C, E). FIGS. 8D-E are sets of representative confocal micrographs of cells before (0 min) and after (5 min) addition of HBR-2,5DM (match1-8D) or HMBR (match2-8E) (mCherry: ex/em 561/606-675 nm; FIRE: ex/em 488/508-570 nm; ECFP: ex/em 445/455-499 nm). […] Scale bars are 20 μm.
as §1, §2, §3

[4] = molecular target: T1, mCherry-^FIREtag / ^FIREmate-ECFP-Giantin; assay: Recruitment of cytoplasmic protein to the Golgi apparatus, HeLa cells; settings: 10 μM
Description: FIGS. 6A-E illustrate the recruitment of cytoplasmic proteins to the Golgi apparatus with the proximity inducing system described herein. FIG. 6A is a representation of the experimental design wherein HeLa cells co-expressing mCherry-^FIREtag and ^FIREmate-ECFP-Giantin were treated with 10 µM of match (either HBR-2,5DM or HMBR), and imaged by time-lapse confocal microscopy. FIGS. 6B-C are graphs showing the temporal evolution of the FIRE signal detected upon addition at 0 min of HBR-2,5DM (match1-6B) or HMBR (match2-6C). Data represents the mean values±SD of 10 cells from n=3 independent experiments (6B, D), or of 12 cells from n=3 independent experiments (6C, E). FIGS. 6D-E are sets of representative confocal micrographs of cells before (0 min) and after (5 min) addition of HBR-2,5DM (match1-6D) or HMBR (match2-6E) (mCherry: ex/em 561/606-675 nm; FIRE: ex/em 488/508-570 nm; ECFP: ex/em 445/455-499 nm). […] Scale bars are 20 μm.
as §1, §2, §3

[5] = molecular target: T4, ^FIREmate and ^FIREtag (fused to FRB and FKBP) (Halorhodospira halophila, UniProt P16113, A30V/C69G/D97P/F96I, form not given/G21E/G25R/K17N/M100R/M109L/Q41L/Q99S/S72T/T101G/V83A/Y94W/Y98T); assay: Flow cytometry of fluorescent ternary assembly formation in HEK293T cells co-expressing FKBP-^FIREtag and FRB-^FIREmate
T4 sequence (P16113 1-114 A30V/C69G/D97P/F96I/G21E/G25R/K17N/M100R/M109L/Q41L/Q99S/S72T/T101G/V83A/Y94W/Y98T): T1 sequence (P16113 1-114 A30V/C69G/D97P/F96I/G21E/G25R/K17N/M100R/M109L/Q41L/Q99S/S72T/T101G/V83A/Y94W/Y98T)
Description: FIGS. 2A and 2B are graphs illustrating the fluorogen-dependent interaction between the two polypeptides ^FIREmate and ^FIREtag. The graphs show the normalized average fluorescence detected from about 50,000 HEK293T cells co-expressing the FK506-binding protein (FKBP) fused to ^FIREtag and the FKBP-rapamycin-binding domain of mammalian target of rapamycin (FRB) fused to ^FIREmate treated without (triangles) or with (squares) 500 nM of rapamycin, and with 1, 5, 10, 25 or 50 μM of HBR-2,5DM (2A) or HMBR (2B). Data represent the mean values±SD of three independent experiments.
The formation of a fluorescent ternary assembly was assessed by flow cytometry in HEK293 cells expressing ^FIREmate and ^FIREtag fused to the C-termini of FKBP (FK506-binding protein) and FRB (FKBP-rapamycin-binding domain of mammalian target of rapamycin), […]. FKBP and FRB are able to dimerize upon addition of rapamycin. Treatment of the HEK293 cells with rapamycin is thus expected to induce the dimerization of FKBP and FRB, and subsequently to induce proximity between ^FIREtag and ^FIREmate.

[6] = test system: mCherry-FKBP-^FIREtag / TOM20-^FIREmate / FRB-ECFP-Giantin; assay: Orthogonality with FRB-FKBP-rapamycin CIP system, confocal microscopy, HeLa cells; settings: simultaneous addition of 10 μM HBR-2,5DM and 500 nM rapamycin
Description: FIG. 12A is a representation of the experimental design wherein HeLa cells co-expressing mCherry-FKBP-^FIREtag, TOM20-^FIREmate and FRB-ECFP-Giantin were treated with 10 μM of match (i.e., HBR-2,5DM) and 500 nM rapamycin, and imaged by time-lapse confocal microscopy. FIG. 12B is a set of representative confocal micrographs of cells before and after addition of HBR-2,5DM (match1) and rapamycin (rap) (mCherry: ex/em 561/606-675 nm; FIRE: ex/em 488/508-570 nm; ECFP: ex/em 445/455-499 nm). Scale bars are 20 μm.
as §1, with “v9.3.0. […]” for “v9.3.0.”

Compound: Cc1cc(/C=C2\SC(=O)NC2=S)ccc1O [HBIR-3M, (Z)-5-(4-hydroxy-3-methylbenzylidene)-4-thioxo-1,3-thiazolidin-2-one]
- assembly with ^FIREtag and ^FIREmate (tightness, fluorescence) [1]: very tight non-fluorescent ‘invisible’ assembly
- induction of proximity relative to HBR-2,5DM ([1]; cycles of sequential addition and removal): as efficiently as HBR-2,5DM

Compound: Cc1cc(/C=C2\SC(=S)NC2=O)ccc1O [HMBR, (Z)-5-(4-hydroxy-3-methylbenzylidene)-2-thioxo-1,3-thiazolidin-4-one]
- FIRE signal at the endoplasmic reticulum [2]: simultaneous appearance of green fluorescence
- translocation of mCherry-^FIREtag to the endoplasmic reticulum [2]: rapid translocation of mCherry-^FIREtag to the organelle
- FIRE signal at the plasma membrane [3]: simultaneous appearance of green fluorescence
- translocation of mCherry-^FIREtag to the plasma membrane [3]: rapid translocation of mCherry-^FIREtag to the organelle
- FIRE signal at the Golgi apparatus [4]: simultaneous appearance of green fluorescence
- translocation of mCherry-^FIREtag to the Golgi apparatus [4]: rapid translocation of mCherry-^FIREtag to the organelle
- dimerization of FKBP and FRB (induced proximity) ([5]; absence of rapamycin): able to induce the dimerization of FKBP and FRB
- formation of a ternary fluorescent assembly ([5]; fluorogen 1, 5, 10, 25 or 50 μM, HEK293 cells): induced the formation of a ternary fluorescent assembly at all tested fluorogen concentrations
- dependence of ternary fluorescent assembly formation on rapamycin (initial proximity) ([5]; with or without 500 nM rapamycin, fluorogen 1-50 μM): regardless of the presence or absence of rapamycin

Compound: CO[C@H]1C[C@@H]2CC[C@@H](C)[C@@](O)(O2)C(=O)C(=O)N2CCCC[C@H]2C(=O)O[C@H]([C@H](C)C[C@@H]2CC[C@@H](O)[C@H](OC)C2)CC(=O)[C@H](C)/C=C(\C)[C@@H](O)[C@@H](OC)C(=O)[C@H](C)C[C@H](C)/C=C/C=C/C=C/1C [rapamycin, reference compound]
- translocation of mCherry-FKBP-^FIREtag [6]: triggered the translocation of mCherry-FKBP-^FIREtag to the Golgi apparatus and to the mitochondria
